The text below walks through data of patent US20130310439A1, “METHOD OF REDUCING PROTEINS MISFOLDING AND/OR AGGREGATION” (Universidade De Lisboa, priority 2010, published 2013).

The experiment concerns Q35 animals (C. elegans model of polyQ aggregation). Description: polyQ aggregation in Q35 animals treated with cholinergic agonists. Type of experiment: in vivo. The settings on record: one day old (L1s) Q35 animals. As to the method:
FIG. 1A: One day old (L1s) Q35 animals were treated with 25 μM levamisole or 1 mM nicotine. The white boxes indicate magnified areas shown below. The photographs are from 4 days old animals.
FIG. 1B are bar graphs showing the number of aggregates in Q35 animals treated with nicotine, levamisole or control animals as a function of age (days).
Additional methods are described in Garcia et al. (2007), Genes and Development 21: 3006-16.

As for `CN1CCCC1c1cccnc1` (centres unmarked) [nicotine], the “polyQ aggregation compared to control animals” value (1 mM nicotine) is given as “increased polyQ aggregation”. For `c1ccc([C@H]2CN3CCSC3=N2)cc1` [levamisole], the “polyQ aggregation compared to control animals” value (25 μM levamisole) is “increased polyQ aggregation”.
